Measurements from article PMC6030159 (Scientific Reports, 2018).
Entries after “also recorded” stand apart in the source; their conditions may differ.

Experiments:
endogenous MYC protein = experiment: Western blot of endogenous MYC in HeLa cells; assay type: cell-based; settings: 10 μM, 24 hours
Method: (§1) These assays were performed essentially as described in[67],[68]. For further information on immunohistochemistry, and on primers and antibodies, see Supplementary Information.

[1] = system: MYC-driven transcription (ODC1, RSG16, CR2); experiment: RT-qPCR of MYC target genes in U2OS-MYC-ER cells; assay type: cell-based; settings: 10 μM, 24 hours
Method: To investigate the effect of the compounds on MYC-driven transcription, we utilized U2OS cells expressing a MYC-estrogen receptor (MYC-ER) fusion protein, the activity of which is regulated by the ligand 4-hydroxytamoxifen (HOT)[43].
as §1

MYCN and MAX proteins = experiment: Western blot of MYCN and MAX in SK-N-DZ and Kelly cells; assay type: cell-based; settings: 2.5 µM, 17 hours
Method: These assays were performed essentially as described in[67],[68]. […] C) MST of labeled MYC (approximately 200 nM) titrated with MYCMI-6 as indicated. Data are shown as mean ± standard deviation of 5 biological repeats. Supplemental Figure S5. Characterization of the binding of MYCMI-6 and other MYC:MAX inhibitory compounds on MYC and different control proteins by surface plasmon resonance (SPR). All sensorgrams are reference surface subtracted. A) SPR assay of MYCMI-6 injected over immobilized MYC in an equilibrium binding experiment where the theoretical Rmax is 23 RU. B) SPR assay of KJ-Pyr-9 injected over immobilized MYC. Theoretical Rmax is 29 RU. C) Sensorgram of MAX SPR assay. MYCMI-6 was injected at various concentrations over immobilized MAX bHLHZip (theoretical Rmax of 24 RU). D) Sensorgram of MAD SPR assay. MYCMI-6 was injected at various concentrations over immobilized GST-MAD bHLHZip (theoretical Rmax of 24 RU). E) Sensorgram of the BCL-XL SPR assay. MYCMI-6 was injected at various concentrations over immobilized BCL-XL (theoretical Rmax of 14 RU). F) Sensorgram of the BSA SPR assay. MYCMI-6 was injected at various concentrations over immobilized BSA (theoretical Rmax of 5 RU). Supplemental Figure S6. Expression of MYCN and MAX proteins after MYCMI-6 treatment in MYCN-amplified neuroblastoma cells. […]

[2] = system: MYCN-amplified neuroblastoma cells (IMR-32, Kelly, SK-N-DZ); experiment: Resazurin growth assay, MYCN-amplified neuroblastoma cell lines; assay type: cell-based, human; settings: 48 hours; for growth of MYCN-amplified versus MYCN-non-amplified neuroblastoma cell lines: MYCMI-6 6.25 μM, MYCMI-11 and MYCMI-14 25 μM, 10058-F4 64 μM
Source text: HEK293A, MCF7, MDA-MB231, SK-N-F1, SK-N-RA, SK-N-AS, COS-7, HeLa, BJ cells, and Rat1 fibroblasts TGR-1 (wt), HO15.19 (MYC knockout) and HOmyc3 (MYC reconstituted HO15.19) were maintained in DMEM. The neuroblastoma cell lines Kelly, IMR-32 and SK-N-DZ, and the Burkitt’s lymphoma cell lines Mutu, Daudi and ST486 were kept in RPMI. SK-N-BE(2) cells were maintained in a 1:1 mixture of EMEM and F12 media, supplemented with 1% non-essential amino acid solution (NEAA) and 0.5% Glutamine. U2OS-MYC-ER cell lines were cultured in phenol-red free DMEM and treated with 100 nM 4-hydroxytamoxifen (HOT) (Sigma-Aldrich) to activate MYC-ER. IMR-90 was maintained in MEM. All media were supplemented with 10% FBS and 1% penicillin and streptomycin and kept at 37 °C and 5% CO2. All cell lines were mycoplasma free. Cell proliferation assays were performed as described in Supplementary Information. […]
Cell proliferation assays. Cell growth and viability was estimated in triplicates with WST-1
(Roche) or Resazurin sodium salt (Sigma-Aldrich) assays in medium at 37°C and 5% CO 2 for
2 hours after which absorbance or fluorescence, respectively, was measured with an Omega
Fluostar (BMG Labtech) in a 96 well plate format. […]

SK-N-DZ cells = experiment: Anchorage-independent growth in agarose; assay type: cell-based; settings: Homo sapiens, 384 h, 0.35% agarose, 16 days
Method: Triton-X-114 (Sigma). Truncated p53 core protein was a kind gift from Klas Wiman, CCK, […]
Cell proliferation assays. Cell growth and viability was estimated in triplicates with WST-1 (Roche) or Resazurin sodium salt (Sigma-Aldrich) assays in medium at 37°C and 5% CO 2 for 2 hours after which absorbance or fluorescence, respectively, was measured with an Omega Fluostar (BMG Labtech) in a 96 well plate format. Cell counting was done in 96 well plates with CellTracker Green (ThermoFisher) for 30 min in the incubator, after which DAPI was added for 5 min. Images were taken in the green (FITC) and blue (DAPI) channels using a fluorescence microscope (ImageXpress Micro, Molecular Devices). For anchorage-independent growth assay, cells were suspended in 250 µl 0.35% SeaPlaque agarose (InVitro) and seeded into 24 well plates which had previously been coated with a bottom layer of 250 µl 0.7% agarose. After 16 days, the colonies were stained with 100 µg/ml MTT (Sigma) overnight and colonies were counted.
Immunohistochemistry. Apoptosis was visualized at the single-cell level on tumor cryosections using the TUNEL method using the In Situ Cell Death Detection Fluorescein-Roche kit and analyzed by fluorescence microscopy. Briefly, tumor cryosections were fixed in 4% paraformaldyde (PFA) and the assay was performed following the instructions from the manufacturer. Negative controls were run using the reagent without the TdT enzyme. Samples were mounted using Vectashield mounting medium (Vector) and DAPI was used as nuclear counterstaining. Cell proliferation and microvascular density (MVD) were evaluated through Ki67 and CD31staining, respectively, on tumor cryosections and detected by immunofluoresence. Visualization and image acquisition was done in a Zeiss microscope, and for panoramic views by a Vectra imaging system. For quantification, areas with positive TUNEL and Ki67 staining were measured using Image J software. For the analysis of MVD, the number of vessel structures per microscopic field was calculated.

SMILES	effect on endogenous MYC protein levels (western blot) (endogenous MYC protein)	HOT-induced expression of MYC target genes ODC1, RSG16 and CR2 [1]	expression of MYCN and MAX (western blot) (MYCN and MAX proteins)	GI50 ([2]; Homo sapiens, Neuroblastoma cell, resazurin)	growth of MYCN-amplified versus MYCN-non-amplified neuroblastoma cell lines [2]	GI50 (SK-N-DZ cells)	effect on endogenous MYC protein levels (western blot) (endogenous MYC protein; listed as MYCM-14)
CCOc1ccc2nc3cc(/N=N/c4ccc(N)nc4N)ccc3c(N)c2c1 [MYCMI-6]	did not affect MYC protein levels to any greater extent; also recorded: do not	significantly reduced	maintaining the expression	2500 to 6000 nM	reduced growth of the MYCN-amplified cell lines significantly stronger than the MYCN-non-amplified cell lines	< 400 nM	
CCCCN(c1ccccc1)c1ncnc2c1cnn2C [MYCMI-11]	did not affect MYC protein levels to any greater extent; also recorded: do not	reduced expression of the genes to a lesser extent			reduced growth of the MYCN-amplified cell lines significantly stronger than the MYCN-non-amplified cell lines	5000 nM	
O=C(O)/C=C/C(=O)Nc1cccc2c1-c1ccccc1C2=O [MYCMI-14]	did not affect MYC protein levels to any greater extent	reduced expression of the genes to a lesser extent			reduced growth of the MYCN-amplified cell lines significantly stronger than the MYCN-non-amplified cell lines	750 nM	do not
